Reference: US9057727B2, “Screening methods using G-protein coupled receptors and related compositions” (The General Hospital Corporation, priority 2007, dated 2015)
Ends that are not written are not given here.

Legend:
MC3T3-E1 cells [1] = test: cAMP in MC3T3-E1 cells, dose-response; type: cell-based; conditions: Table 3; read-out: dose-response cAMP in MC3T3-E1 (EC50)
Protocol: In the 1-30 scaffold, Gly, Ser, Leu, Asn, Gln, Trp, Glu, and Lys were substituted at position 29; Gly, Ser, Leu, Asn, Asp, Trp, and Lys were substituted at position 30; and Ser, Leu, Asn, Val, Trp, Glu, and Lys were substituted at position 31. […] These peptides were tested for cAMP activity in MC3T3-E1 cells.

MC3T3-E1 cells [2] = test: cAMP screen of EALK-PTHrP(1-31)/(1-34) variants (% parent); type: cell-based
Excerpt: FIGS. 32A and 32B are graphs showing the effects of amino acid substitutions in the 29-31 region of EALK-PTHrP(1-31) (SEQ ID NO:94) (FIG. 32A) and the 29-33 region of EALK-PTHrP(1-34) (SEQ ID NO:112) (FIG. 32B) on induction of cAMP activity in MC3T3-E1 cells. Substitutions at position 29 for EALK-PTHrP(1-31) were G^29 to S^29 (SEQ ID NO:95-96), L^29 (SEQ ID NO:176), and N^29 to K^29 (SEQ ID NO:97-101). Substitutions at position 30 for EALK-PTHrP(1-31) were G^30 to D^30 (SEQ ID NO:102-106), W^30 (SEQ ID NO:177), and K^30 (SEQ ID NO:107). […] Substitutions for EALK-PTHrP(1-34) A^30 to A^33 (SEQ ID NO:113-116) and EALK-PTHrP(1-28)/PTH(29-34) (SEQ ID NO:117).
To optimize the activity of the EALK-PTHrP peptides, we generated EALK-PTHrP([…]) and PTHrP(1-34) variants with substitutions in the 29-33 region. In the 1-30 scaffold, Gly, Ser, Leu, Asn, Gln, Trp, Glu, and Lys were substituted at position 29; Gly, Ser, Leu, Asn, Asp, Trp, and Lys were substituted at position 30; and Ser, Leu, Asn, Val, Trp, Glu, and Lys were substituted at position 31. […] A predicted advantage of these longer-length peptides, relative to the PTHrP(1-30) scaffold, is that they will have longer a longer half-life in circulation due to slower clearance. The C-terminal substitutions were thus designed to provide the added chain length, but to avoid increasing R^0 binding affinity, which occurs when the native PTHrP(29-34) region (SEQ ID NO:186) is installed. These peptides were tested for cAMP activity in MC3T3-E1 cells.

[3] = parent E18,A22,L25,K26-PTHrP(1-34)OH
[4] = parent E18,A22,L25,K26-PTHrP(1-31)OH

| Substance | EC50 (MC3T3-E1 cells [1]) [nM] | screen cAMP (% parent) (MC3T3-E1 cells [2]; [4]) | also measured |
| --- | --- | --- | --- |
| AVSEHQLLHDKGKSIQDARRRAFLHKLIAE [A18, 22, K26-PTHrP(1-30)NH, A18,22,K26-PTHrP(1-30)] | 0.058 |  |  |
| AVSEHQLLHDKGKSIQDARRRAFLHKLIAEI [A18, 22, K26-PTHrP(1-31)NH, A18,22,K26-PTHrP(1-31)] | 0.06 |  |  |
| AVSEHQLLHDKGKSIQDARRRAFLLKLIAEI [A18, 22, L25, K26-PTHrP(1-31)NH, A18,22,L25,K26-PTHrP(1-31)] | 0.2 |  |  |
| AVSEHQLLHDKGKSIQDERRRAFLHHKIAE [E18, A22, K27-PTHrP(1-30)NH, E18,A22,K27-PTHrP(1-30)] | 0.082 |  |  |
| AVSEHQLLHDKGKSIQDERRRAFLLKLIAEI [E18, A22, L25, K26-PTHrP(1-31)NH, E18,A22,L25,K26-PTHrP(1-31)] | 0.112 |  |  |
| E18,A22,L25,K26,A32-PTHrP(1-34) (AVSEHQLLHDKGKSIQDERRRAFLLKLIAEIATA-OH) [E18, A22, L25, K26, A32-PTHrP(1-34)OH] |  |  | screen cAMP (% parent) (MC3T3-E1 cells [2]; [3]): 197 % parent |
| E18,A22,L25,K26,A33-PTHrP(1-34) (AVSEHQLLHDKGKSIQDERRRAFLLKLIAEIHAA-OH) [E18, A22, L25, K26, A33-PTHrP(1-34)OH] |  |  | screen cAMP (% parent) (MC3T3-E1 cells [2]; [3]): 196 % parent |
| E18,A22,L25,K26,E29-PTHrP(1-31) (AVSEHQLLHDKGKSIQDERRRAFLLKLIEEI-OH) [E18, A22, L25, K26, E29-PTHrP(1-31)OH] |  | 100 |  |
| E18,A22,L25,K26,G29-PTHrP(1-31) (AVSEHQLLHDKGKSIQDERRRAFLLKLIGEI-OH) [E18, A22, L25, K26, G29-PTHrP(1-31)OH] |  | 206 |  |
| E18,A22,L25,K26,G30-PTHrP(1-31) (AVSEHQLLHDKGKSIQDERRRAFLLKLIAGI-OH) [E18, A22, L25, K26, G30-PTHrP(1-31)OH] |  | 286 |  |
| E18,A22,L25,K26,K31-PTHrP(1-31) (AVSEHQLLHDKGKSIQDERRRAFLLKLIAEK-OH) [E18, A22, L25, K26, K31-PTHrP(1-31)OH] |  | 134 |  |
